Results from patent US20230017045A1, “PYRIDINE AND PYRIMIDINE CARBOXYLATE HERBICIDES AND METHODS OF USE THEREOF” (Dow AgroSciences LLC, priority 2017, published 2023).

What follows are molecules tested on test plant species (assay: Post-emergent herbicidal activity test (greenhouse, foliar spray, visual growth reduction)). Conditions: post-emergence, 336 h, ECHCG: barnyardgrass (Echinochloa crus-galli), 140 g ai/ha, 14 days after application, read-out: Visual Growth Reduction (%) 14 Days After Application, ECHCG.
Type: in vivo
Procedure, shortened: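 Visual scoring 14 d after treatment (0 = no injury, 100 = complete control) against nontreated and solvent-blank plants gave percent growth reduction. Foliar application used a track sprayer delivering 187 L/ha to seedlings at first or second true leaf stage, grown at 23–29 °C day, ~15 h photoperiod.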

Question: With `COC(=O)c1nc(-c2cc3c(cc2OC)OC(F)(F)O3)c(F)cc1Cl` [F333, Methyl 3-chloro-6-(2,2-difluoro-6-methoxybenzo[d][1,3]dioxol-5-yl)-5-fluoropicolinate] as the molecule, how does the pest or weed control at 140 g/ha read?
Answer: The pest or weed control at 140 g/ha was 30 to 44%.

Question: For `COC(=O)c1nc(-c2ccc(C(F)(F)F)c(Cl)c2)ccc1Cl` [F304, Methyl 3-chloro-6-(3-chloro-4-(trifluoromethyl)phenyl)picolinate], which pest or weed control at 140 g/ha is on record?
Answer: The pest or weed control at 140 g/ha was 0 to 29%.

Same assay, conditions: post-emergence, 336 h, IPOHE: ivy-leaf morning glory (Ipomoea hederacea), 140 g ai/ha, 14 days after application, read-out: Visual Growth Reduction (%) 14 Days After Application, IPOHE

Question: With `COC(=O)c1nc(-c2cc3c(cc2OC)OC(F)(F)O3)c(F)cc1Cl` [F333, Methyl 3-chloro-6-(2,2-difluoro-6-methoxybenzo[d][1,3]dioxol-5-yl)-5-fluoropicolinate] as the molecule, how does the pest or weed control at 140 g/ha read?
Answer: The pest or weed control at 140 g/ha was 95 to 100%.

Question: For `COC(=O)c1nc(-c2ccc(C(F)(F)F)c(Cl)c2)ccc1Cl` [F304, Methyl 3-chloro-6-(3-chloro-4-(trifluoromethyl)phenyl)picolinate], which pest or weed control at 140 g/ha is on record?
Answer: The pest or weed control at 140 g/ha was 95 to 100%.

Same assay, conditions: post-emergence, 336 h, KCHSC: kochia (Bassia scoparia), 140 g ai/ha, 14 days after application, read-out: Visual Growth Reduction (%) 14 Days After Application, KCHSC

Question: `COC(=O)c1nc(-c2cc3c(cc2OC)OC(F)(F)O3)c(F)cc1Cl` [F333, Methyl 3-chloro-6-(2,2-difluoro-6-methoxybenzo[d][1,3]dioxol-5-yl)-5-fluoropicolinate] was tested. Which pest or weed control at 140 g/ha did it give?
Answer: The pest or weed control at 140 g/ha was 30 to 44%.

Question: For `COC(=O)c1nc(-c2ccc(C(F)(F)F)c(Cl)c2)ccc1Cl` [F304, Methyl 3-chloro-6-(3-chloro-4-(trifluoromethyl)phenyl)picolinate], which pest or weed control at 140 g/ha is on record?
Answer: Its pest or weed control at 140 g/ha is 0 to 29%.

Same assay, conditions: post-emergence, 336 h, ORYSA: rice (Oryza sativa), 140 g ai/ha, 14 days after application, read-out: Visual Growth Reduction (%) 14 Days After Application, ORYSA

Question: With `COC(=O)c1nc(-c2cc3c(cc2OC)OC(F)(F)O3)c(F)cc1Cl` [F333, Methyl 3-chloro-6-(2,2-difluoro-6-methoxybenzo[d][1,3]dioxol-5-yl)-5-fluoropicolinate] as the molecule, how does the pest or weed control at 140 g/ha read?
Answer: Its pest or weed control at 140 g/ha is 0 to 29%.

Question: With `COC(=O)c1nc(-c2ccc(C(F)(F)F)c(Cl)c2)ccc1Cl` [F304, Methyl 3-chloro-6-(3-chloro-4-(trifluoromethyl)phenyl)picolinate] as the molecule, how does the pest or weed control at 140 g/ha read?
Answer: The pest or weed control at 140 g/ha was 0 to 29%.

Same assay, conditions: post-emergence, 336 h, SETFA: giant foxtail (Setaria faberi), 140 g ai/ha, 14 days after application, read-out: Visual Growth Reduction (%) 14 Days After Application, SETFA

Question: With `COC(=O)c1nc(-c2cc3c(cc2OC)OC(F)(F)O3)c(F)cc1Cl` [F333, Methyl 3-chloro-6-(2,2-difluoro-6-methoxybenzo[d][1,3]dioxol-5-yl)-5-fluoropicolinate] as the molecule, how does the pest or weed control at 140 g/ha read?
Answer: The pest or weed control at 140 g/ha was 30 to 44%.

Question: Which pest or weed control at 140 g/ha does the source give for `COC(=O)c1nc(-c2ccc(C(F)(F)F)c(Cl)c2)ccc1Cl` [F304, Methyl 3-chloro-6-(3-chloro-4-(trifluoromethyl)phenyl)picolinate] here?
Answer: The pest or weed control at 140 g/ha was 0 to 29%.

Same assay, conditions: post-emergence, 336 h, SORVU: grain sorghum (Sorghum vulgare), 140 g ai/ha, 14 days after application, read-out: Visual Growth Reduction (%) 14 Days After Application, SORVU

Question: `COC(=O)c1nc(-c2cc3c(cc2OC)OC(F)(F)O3)c(F)cc1Cl` [F333, Methyl 3-chloro-6-(2,2-difluoro-6-methoxybenzo[d][1,3]dioxol-5-yl)-5-fluoropicolinate] was tested. Which pest or weed control at 140 g/ha did it give?
Answer: Its pest or weed control at 140 g/ha is 85 to 94%.

Question: Which pest or weed control at 140 g/ha does the source give for `COC(=O)c1nc(-c2ccc(C(F)(F)F)c(Cl)c2)ccc1Cl` [F304, Methyl 3-chloro-6-(3-chloro-4-(trifluoromethyl)phenyl)picolinate] here?
Answer: The pest or weed control at 140 g/ha was 0 to 29%.

Same assay, conditions: post-emergence, 336 h, STEME: common chickweed (Stellaria media), 140 g ai/ha, 14 days after application, read-out: Visual Growth Reduction (%) 14 Days After Application, STEME

Question: Which pest or weed control at 140 g/ha does the source give for `COC(=O)c1nc(-c2cc3c(cc2OC)OC(F)(F)O3)c(F)cc1Cl` [F333, Methyl 3-chloro-6-(2,2-difluoro-6-methoxybenzo[d][1,3]dioxol-5-yl)-5-fluoropicolinate] here?
Answer: The pest or weed control at 140 g/ha was 0 to 29%.

Question: With `COC(=O)c1nc(-c2ccc(C(F)(F)F)c(Cl)c2)ccc1Cl` [F304, Methyl 3-chloro-6-(3-chloro-4-(trifluoromethyl)phenyl)picolinate] as the molecule, how does the pest or weed control at 140 g/ha read?
Answer: Its pest or weed control at 140 g/ha is 0 to 29%.

Same assay, conditions: post-emergence, 336 h, TRZAS: wheat, spring (Triticum aestivum), 140 g ai/ha, 14 days after application, read-out: Visual Growth Reduction (%) 14 Days After Application, TRZAS

Question: With `COC(=O)c1nc(-c2cc3c(cc2OC)OC(F)(F)O3)c(F)cc1Cl` [F333, Methyl 3-chloro-6-(2,2-difluoro-6-methoxybenzo[d][1,3]dioxol-5-yl)-5-fluoropicolinate] as the molecule, how does the pest or weed control at 140 g/ha read?
Answer: Its pest or weed control at 140 g/ha is 45 to 59%.

Question: `COC(=O)c1nc(-c2ccc(C(F)(F)F)c(Cl)c2)ccc1Cl` [F304, Methyl 3-chloro-6-(3-chloro-4-(trifluoromethyl)phenyl)picolinate] was tested. Which pest or weed control at 140 g/ha did it give?
Answer: Its pest or weed control at 140 g/ha is 0 to 29%.

Same assay, conditions: post-emergence, 336 h, blackgrass (Alopecurus myosuroides), 14 Days After Application, 140 g ai/ha, read-out: Visual Growth Reduction (%) ALOMY

Question: For `COC(=O)c1nc(-c2cc3c(cc2OC)OC(F)(F)O3)c(F)cc1Cl` [F333, Methyl 3-chloro-6-(2,2-difluoro-6-methoxybenzo[d][1,3]dioxol-5-yl)-5-fluoropicolinate], which pest or weed control at 140 g/ha is on record?
Answer: Its pest or weed control at 140 g/ha is 0 to 29%.

Question: Which pest or weed control at 140 g/ha does the source give for `COC(=O)c1nc(-c2ccc(C(F)(F)F)c(Cl)c2)ccc1Cl` [F304, Methyl 3-chloro-6-(3-chloro-4-(trifluoromethyl)phenyl)picolinate] here?
Answer: Its pest or weed control at 140 g/ha is 0 to 29%.

Same assay, conditions: post-emergence, 336 h, canada thistle (Cirsium arvense), 14 Days After Application, 140 g ai/ha, read-out: Visual Growth Reduction (%) CIRAR

Question: Which pest or weed control at 140 g/ha does the source give for `COC(=O)c1nc(-c2ccc(C(F)(F)F)c(Cl)c2)ccc1Cl` [F304, Methyl 3-chloro-6-(3-chloro-4-(trifluoromethyl)phenyl)picolinate] here?
Answer: Its pest or weed control at 140 g/ha is 0 to 29%.

Same assay, conditions: post-emergence, 336 h, crabgrass (Digitaria sanguinalis), 14 Days After Application, 140 g ai/ha, read-out: Visual Growth Reduction (%) DIGSA

Question: For `COC(=O)c1nc(-c2cc3c(cc2OC)OC(F)(F)O3)c(F)cc1Cl` [F333, Methyl 3-chloro-6-(2,2-difluoro-6-methoxybenzo[d][1,3]dioxol-5-yl)-5-fluoropicolinate], which pest or weed control at 140 g/ha is on record?
Answer: Its pest or weed control at 140 g/ha is 60 to 74%.

Question: `COC(=O)c1nc(-c2ccc(C(F)(F)F)c(Cl)c2)ccc1Cl` [F304, Methyl 3-chloro-6-(3-chloro-4-(trifluoromethyl)phenyl)picolinate] was tested. Which pest or weed control at 140 g/ha did it give?
Answer: Its pest or weed control at 140 g/ha is 30 to 44%.

Same assay, conditions: post-emergence, 336 h, lambsquarters (Chenopodium album), 14 Days After Application, 140 g ai/ha, read-out: Visual Growth Reduction (%) CHEAL

Question: With `COC(=O)c1nc(-c2cc3c(cc2OC)OC(F)(F)O3)c(F)cc1Cl` [F333, Methyl 3-chloro-6-(2,2-difluoro-6-methoxybenzo[d][1,3]dioxol-5-yl)-5-fluoropicolinate] as the molecule, how does the pest or weed control at 140 g/ha read?
Answer: Its pest or weed control at 140 g/ha is 0 to 29%.

Question: Which pest or weed control at 140 g/ha does the source give for `COC(=O)c1nc(-c2ccc(C(F)(F)F)c(Cl)c2)ccc1Cl` [F304, Methyl 3-chloro-6-(3-chloro-4-(trifluoromethyl)phenyl)picolinate] here?
Answer: Its pest or weed control at 140 g/ha is 0 to 29%.

Same assay, conditions: post-emergence, 336 h, redroot pigweed (Amaranthus retroflexus), 14 Days After Application, 140 g ai/ha, read-out: Visual Growth Reduction (%) AMARE

Question: How did the pest or weed control at 140 g/ha turn out when `COC(=O)c1nc(-c2cc3c(cc2OC)OC(F)(F)O3)c(F)cc1Cl` [F333, Methyl 3-chloro-6-(2,2-difluoro-6-methoxybenzo[d][1,3]dioxol-5-yl)-5-fluoropicolinate] was run?
Answer: The pest or weed control at 140 g/ha was 30 to 44%.

Question: How did the pest or weed control at 140 g/ha turn out when `COC(=O)c1nc(-c2ccc(C(F)(F)F)c(Cl)c2)ccc1Cl` [F304, Methyl 3-chloro-6-(3-chloro-4-(trifluoromethyl)phenyl)picolinate] was run?
Answer: The pest or weed control at 140 g/ha was 0 to 29%.

Same assay, conditions: post-emergence, 336 h, wild oat (Avena fatua), 14 Days After Application, 140 g ai/ha, read-out: Visual Growth Reduction (%) AVEFA

Question: Which pest or weed control at 140 g/ha does the source give for `COC(=O)c1nc(-c2cc3c(cc2OC)OC(F)(F)O3)c(F)cc1Cl` [F333, Methyl 3-chloro-6-(2,2-difluoro-6-methoxybenzo[d][1,3]dioxol-5-yl)-5-fluoropicolinate] here?
Answer: The pest or weed control at 140 g/ha was 0 to 29%.

Question: How did the pest or weed control at 140 g/ha turn out when `COC(=O)c1nc(-c2ccc(C(F)(F)F)c(Cl)c2)ccc1Cl` [F304, Methyl 3-chloro-6-(3-chloro-4-(trifluoromethyl)phenyl)picolinate] was run?
Answer: Its pest or weed control at 140 g/ha is 0 to 29%.

Same assay, conditions: post-emergence, 336 h, yellow nutsedge (Cyperus esculentus), 14 Days After Application, 140 g ai/ha, read-out: Visual Growth Reduction (%) CYPES

Question: Which pest or weed control at 140 g/ha does the source give for `COC(=O)c1nc(-c2cc3c(cc2OC)OC(F)(F)O3)c(F)cc1Cl` [F333, Methyl 3-chloro-6-(2,2-difluoro-6-methoxybenzo[d][1,3]dioxol-5-yl)-5-fluoropicolinate] here?
Answer: The pest or weed control at 140 g/ha was 0 to 29%.

Question: With `COC(=O)c1nc(-c2ccc(C(F)(F)F)c(Cl)c2)ccc1Cl` [F304, Methyl 3-chloro-6-(3-chloro-4-(trifluoromethyl)phenyl)picolinate] as the molecule, how does the pest or weed control at 140 g/ha read?
Answer: Its pest or weed control at 140 g/ha is 0 to 29%.
